# Measurements taken from patent publication EP0393973A1, “Antitumor Agent Indicated for lung cancer” (priority 1989, dated 1990).
# Assays:
# [1] = system: platelet aggregation; assay: Suppression of platelet aggregation; details: substance per se
# [2] = Observation of gastric mucosa after oral dosing of normal rats; details: rat, in vivo
# Description: It was therefore assumed that a massive dose of citral or lemongrass oil which contains citral as its principal constituent would adversely affect normal cells. • (2) Instead of dosing lemongrass oil directly to normal rats, lemongrass oil or citral in β-cyclodextrin clathrates was mixed with feed.
# [3] = system: chicken embryos; details: cited from earlier work
# [4] = system: sarcoma 180; details: oral administration to mice bearing sarcoma 180; cited from earlier work
smiles,measurement,setting,value
"CC(C)=CCCC(C)=CC=O [Citral, citral]",platelet aggregation,[1],strongly suppresses
same,findings on the gastric mucosa,[2],petechiae were observed on the gastric mucosa
same,teratogenicity,[3],teratogenic
same,growth of cancer cells,[4],suppresses growth of cancer cells
